# Values quoted from earlier work as cited in patent US20250057829A1, “INHIBITORS OF TRPC6 FOR TREATING FOCAL SEGMENTAL GLOMERULOSCLEROSIS” (Boehringer Ingelheim International GmbH, priority 2023, published 2025).
# Test system: adults and children with steroid resistant FSGS
# Details: week 8, follow-up vs. baseline; cited from earlier work
substance,measurement,value
mycophenolate mofetil/dexamethasone [MMF/DEX],reduction of UPCR,~50%
